Experimental data taken from US20250152604A1, “CONTRACEPTIVE METHODS WITH SCHEDULED BLEEDING EFFECTS” (ESTETRA SRL, priority 2022, published 2025).

Assay: Solubility description
Assay type: physicochemical
Conditions: for solubility in water: water (and aqueous solutions)

SMILES | solubility in acetone (acetone) | solubility in acetonitrile (acetonitrile) | solubility in ethanol (ethanol) | solubility in ethyl acetate (ethyl acetate) | solubility in methanol (methanol) | solubility in water
C[C@]12CC[C@@H]3c4ccc(O)cc4CC[C@H]3[C@@H]1[C@@H](O)[C@@H](O)C2O (stereo in doubt) [Estetrol monohydrate, estra-1,3,5 (10)-triene-3,15α, 16α, 17α-tetrol monohydrate] | sparingly soluble | slightly soluble | soluble | slightly soluble | soluble | poorly soluble
C[C@]12CCC(=O)C=C1[C@@H]1C[C@@H]1[C@H]1[C@@H]3[C@@H]4C[C@@H]4[C@@]4(CCC(=O)O4)[C@@]3(C)CC[C@@H]12 [Drospirenone, reference compound] | – | – | – | – | – | slight solubility
